This assay deals with P388 leukemia ip, CD2F1 mice, survival T/C. The assay can be described thus: NCI In Vivo Anticancer Drug Screen. Data for tumor model P388 Leukemia (intraperitoneal) in CD2F1 (CDF1) mice. Particulars: endpoint: median survival time, higher = longer survival. In a few lines:
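Mice carrying the transplanted tumor received test compound or vehicle. Survival was recorded in each group, and the value is the treated-group measurement divided by that of the vehicle-treated control group.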

[1] abbreviates: dose: 100.0 mg/kg/injection, schedule: Q04DX003 (ip), vehicle: saline with Tween-80.
Where [2] appears, read: dose: 200.0 mg/kg/injection, schedule: Q04DX003 (ip), vehicle: saline with Tween-80.
Setting [3] is: dose: 60.0 mg/kg/injection, schedule: Q01DX005 (ip), vehicle: Klucel (hydroxypropylcellulose) (HPC).
[4] abbreviates: dose: 120.0 mg/kg/injection, schedule: Q01DX005 (ip), vehicle: Klucel (hydroxypropylcellulose) (HPC).
Setting [5] is: dose: 240.0 mg/kg/injection, schedule: Q01DX005 (ip), vehicle: Klucel (hydroxypropylcellulose) (HPC).
The mark [6] stands for this setting: dose: 12.5 mg/kg/injection, schedule: Q01DX009 (ip), vehicle: saline with Tween-80.
The mark [7] stands for this setting: dose: 25.0 mg/kg/injection, schedule: Q01DX009 (ip), vehicle: saline with Tween-80.
[8] abbreviates: dose: 100.0 mg/kg/injection, schedule: Q01DX009 (ip), vehicle: saline with Tween-80.

Values joined by “and” are separate entries in the source; they are usually repeats but may differ in a detail not shown here. Equal values may be shown once. Inconclusive results and toxic doses are left out.

Regarding `CC(C)OC(=O)Nc1nc2ccc(C(=O)OC(C)C)cc2[nH]1`, the T/C (dose: 50.0 mg/kg/injection, schedule: Q04DX003 (ip), vehicle: saline with Tween-80) was 102 % of control; the T/C under setting [1] is 104 % of control and 116 % of control; the T/C under setting [2] was 112 % of control and 113 % of control.

Turning to `Cc1ccc(C)n1-c1ccsc1C(=O)NNC(=O)C(Cl)(Cl)Cl`, the T/C runs as follows: (dose: 7.5 mg/kg/injection, schedule: Q01DX005 (ip), vehicle: Klucel (hydroxypropylcellulose) (HPC)) 102 % of control; (dose: 15.0 mg/kg/injection, schedule: Q01DX005 (ip), vehicle: Klucel (hydroxypropylcellulose) (HPC)) 101 % of control; (dose: 30.0 mg/kg/injection, schedule: Q01DX005 (ip), vehicle: Klucel (hydroxypropylcellulose) (HPC)) 111 % of control.

Regarding `CCCOc1cc2c(cc1C(C)c1ccc(OC)cc1)OCO2` (stereo unspecified), the T/C is 106 % of control (dose: 25.0 mg/kg/injection, schedule: Q01DX005 (ip), vehicle: distilled water + alcohol); 112 % of control and 114 % of control (dose: 400.0 mg/kg/injection, schedule: Q01DX005 (ip), vehicle: distilled water + alcohol).

For the compound `CCOc1ccc(C(C)c2cc3c(cc2OC)OCO3)cc1` (stereo unspecified), the T/C runs as follows: (dose: 15.0 mg/kg/injection, schedule: Q01DX005 (ip), vehicle: distilled water + Tween-80) 102 % of control; (dose: 25.0 mg/kg/injection, schedule: Q01DX005 (ip), vehicle: distilled water + Tween-80) 100 % of control and 105 % of control (2×); (dose: 31.0 mg/kg/injection, schedule: Q01DX005 (ip), vehicle: distilled water + Tween-80) 118 % of control; (dose: 62.5 mg/kg/injection, schedule: Q01DX005 (ip), vehicle: distilled water + Tween-80) 124 % of control; (dose: 72.0 mg/kg/injection, schedule: Q01DX005 (ip), vehicle: distilled water + Tween-80) 118 % of control and 119 % of control; (dose: 120.0 mg/kg/injection, schedule: Q01DX005 (ip), vehicle: distilled water + Tween-80) 112 % of control and 120 % of control. Besides, the T/C (dose: 125.0 mg/kg/injection, schedule: Q01DX005 (ip), vehicle: distilled water + Tween-80) was 154 % of control.

For `COc1cc(C2c3cc4c(cc3OC(C)(N3CCCC3)C2C)OCO4)cc(OC)c1OC` (stereo unspecified), the T/C is 100 % of control under setting [3], 102 % of control under setting [4] and 105 % of control under setting [5].

Regarding `O=C1CC2(CCCC2)CC(=O)N1c1ccc(-c2ccc(N3C(=O)CC4(CCCC4)CC3=O)cc2)cc1`, the T/C was 100 % of control (dose: 50.0 mg/kg/injection, schedule: Q01DX009 (ip), vehicle: Klucel (hydroxypropylcellulose) (HPC)) and 94 % of control (dose: 100.0 mg/kg/injection, schedule: Q01DX009 (ip), vehicle: Klucel (hydroxypropylcellulose) (HPC)).

Consider `CN(c1ccc(C2=NCCN2)cc1)S(=O)(=O)c1ccc(Oc2ccc(S(=O)(=O)N(C)c3ccc(C4=NCCN4)cc3)cc2)cc1`, for which the T/C was 100 % of control (dose: 6.25 mg/kg/injection, schedule: Q01DX005 (ip), vehicle: Klucel (hydroxypropylcellulose) (HPC)); 100 % of control (dose: 12.5 mg/kg/injection, schedule: Q01DX005 (ip), vehicle: Klucel (hydroxypropylcellulose) (HPC)); 109 % of control (dose: 25.0 mg/kg/injection, schedule: Q01DX005 (ip), vehicle: Klucel (hydroxypropylcellulose) (HPC)).

In the case of `O=P1(N(CCCl)CCCl)Nc2cc3ccccc3cc2N1`, the T/C runs as follows: (dose: 3.13 mg/kg/injection, schedule: Q01DX009 (ip), vehicle: saline with Tween-80) 103 % of control; (dose: 6.25 mg/kg/injection, schedule: Q01DX009 (ip), vehicle: saline with Tween-80) 96 % of control; under setting [6], 99 % of control; under setting [7], 100 % of control.

In the case of `O=P(O)(O)SP(=O)(O)O.[Ni]`, the T/C is 102 % of control and 94 % of control (dose: 12.5 mg/kg/injection, schedule: Q01DX001 (ip), vehicle: suspension in saline); 99 % of control and 94 % of control (dose: 25.0 mg/kg/injection, schedule: Q01DX001 (ip), vehicle: suspension in saline); 122 % of control (dose: 50.0 mg/kg/injection, schedule: Q01DX001 (ip), vehicle: suspension in saline).

For `COc1cc(C(Nc2ccccn2)c2cc3c(cc2O)OCO3)cc(OC)c1O` (stereo unspecified), the T/C was 91 % of control under setting [3], 91 % of control under setting [4] and 94 % of control under setting [5].

For `CNC(=S)C#N`, the T/C by setting is: (dose: 25.0 mg/kg/injection, schedule: Q01DX005 (ip), vehicle: saline + Tween-80 + alcohol) 122 % of control; (dose: 50.0 mg/kg/injection, schedule: Q01DX005 (ip), vehicle: saline + Tween-80 + alcohol) 111 % of control and 119 % of control; (dose: 100.0 mg/kg/injection, schedule: Q01DX005 (ip), vehicle: saline + Tween-80 + alcohol) 119 % of control.

Take `COCC/C(COC)=N\N=C(/CCOC)COC`: the T/C under setting [8] was 109 % of control; the T/C (dose: 100.0 mg/kg/injection, schedule: Q04DX003 (ip), vehicle: saline sonified) is 104 % of control; the T/C (dose: 200.0 mg/kg/injection, schedule: Q04DX003 (ip), vehicle: saline sonified) is 100 % of control; the T/C (dose: 400.0 mg/kg/injection, schedule: Q04DX003 (ip), vehicle: saline sonified) was 104 % of control.

`O=C(CC(O)(c1ccccc1)c1ccccc1)SCc1ccccc1`: the T/C (dose: 100.0 mg/kg/injection, schedule: Q04DX003 (ip), vehicle: Klucel (hydroxypropylcellulose) (HPC)) is 102 % of control; the T/C (dose: 200.0 mg/kg/injection, schedule: Q04DX003 (ip), vehicle: Klucel (hydroxypropylcellulose) (HPC)) is 98 % of control; the T/C (dose: 400.0 mg/kg/injection, schedule: Q04DX003 (ip), vehicle: Klucel (hydroxypropylcellulose) (HPC)) was 110 % of control.

As for `COC(=O)C1=C(C)NC2(C)SC1C(C)C2C(=O)OC` (stereo unspecified), the T/C is 92 % of control and 93 % of control under setting [6]; 101 % of control and 93 % of control under setting [7]; 90 % of control and 97 % of control (dose: 50.0 mg/kg/injection, schedule: Q01DX009 (ip), vehicle: saline with Tween-80); 87 % of control and 90 % of control under setting [8].

As for `C=C(C)C12CC(C)C34OC(/C=C/C=C/CCCCC)(OC1C3C1OC1(CO)C(O)C1(O)C(=O)C(C)=CC14)O2` (stereo unspecified), the T/C (dose: 0.03 mg/kg/injection, schedule: Q01DX009 (ip), vehicle: distilled water + alcohol) was 96 % of control; the T/C (dose: 0.06 mg/kg/injection, schedule: Q01DX009 (ip), vehicle: distilled water + alcohol) was 102 % of control; the T/C (dose: 0.12 mg/kg/injection, schedule: Q01DX009 (ip), vehicle: distilled water + alcohol) was 98 % of control; the T/C (dose: 0.25 mg/kg/injection, schedule: Q01DX009 (ip), vehicle: distilled water + alcohol) was 106 % of control; the T/C (dose: 0.5 mg/kg/injection, schedule: Q01DX009 (ip), vehicle: distilled water + alcohol) was 98 % of control; the T/C (dose: 1.0 mg/kg/injection, schedule: Q01DX009 (ip), vehicle: distilled water + alcohol) is 108 % of control.

On to `N#Cc1c(-c2ccccc2)c(-c2ccccc2)n[nH]c1=O`, for which the T/C reads like this: (dose: 25.0 mg/kg/injection, schedule: Q04DX002 (ip), vehicle: distilled water + Tween-80) 99 % of control; (dose: 50.0 mg/kg/injection, schedule: Q04DX002 (ip), vehicle: distilled water + Tween-80) 100 % of control; (dose: 100.0 mg/kg/injection, schedule: Q01DX001 (ip), vehicle: saline) 100 % of control; (dose: 100.0 mg/kg/injection, schedule: Q04DX002 (ip), vehicle: distilled water + Tween-80) 98 % of control; (dose: 200.0 mg/kg/injection, schedule: Q01DX001 (ip), vehicle: saline) 96 % of control; (dose: 200.0 mg/kg/injection, schedule: Q04DX002 (ip), vehicle: distilled water + Tween-80) 98 % of control. Moreover, the T/C (dose: 400.0 mg/kg/injection, schedule: Q01DX001 (ip), vehicle: saline) is 100 % of control.

`O=C(NO)c1ccccc1O`: the T/C under setting [8] is 110 % of control; the T/C under setting [1] is 86 % of control; the T/C (dose: 200.0 mg/kg/injection, schedule: Q01DX009 (ip), vehicle: saline with Tween-80) is 100 % of control; the T/C under setting [2] is 90 % of control; the T/C (dose: 400.0 mg/kg/injection, schedule: Q01DX009 (ip), vehicle: saline with Tween-80) was 110 % of control; the T/C (dose: 400.0 mg/kg/injection, schedule: Q04DX003 (ip), vehicle: saline with Tween-80) was 100 % of control.

The record behind these values is PubChem BioAssay AID330 (DTP/NCI, 2004).
